Experimental data reported in PMC12040169 (PLOS Biology, 2025).

Experiment: in vitro
Conditions: human, hela cells

SMILES | viability at 28.5 h, 10 µM (% viability) | viability at 28.5 h, 10 µM
CCN(CC)CCN(CCc1ccc(OC)c(OC)c1)C(=O)Nc1ccc(Cl)cc1 [CBK160510] | 96.6% | –
COc1cccc(Nc2cc(-c3ccc(N4CCOCC4)cc3)ncn2)c1 [CBK090733] | 68.7% | –
Cc1cccc(NC(=O)c2cc(NC(=O)C3CCCCC3C(=O)O)ccc2N2CCCCC2)c1 (stereo not shown) [CBK267332] | 97.3% | –
Cn1cc(CNCCCN2CCc3ccccc32)c(-c2cccnc2)n1 [CBK306316] | 93.3% | –
O=C(CSc1ccccc1[N+](=O)[O-])Oc1ccccc1 [CBK265501] | 106% | –
CN(C)CCCN1C(=O)C(O)=C(C(=O)c2ccncc2)C1c1ccccc1 (stereo not shown) [CBK287779] | 107% | –
Cc1oc2ccc(O)cc2c1C(=O)N(C)C(C)Cc1ccccn1 (stereo not shown) [CBK282627] | 96.2% | –
Cc1nn(C)cc1-c1cncn1CCCOc1ccc(Cl)cc1 [CBK281787] | 87.5% | –
Cn1cnnc1CNC(=O)N1CCN(Cc2cccs2)CC1 [CBK305045] | 86.3% | –
CC1=NN(C(=O)CSCc2ccccc2)C(O)(c2ccc(Cl)cc2)C1 (stereo not shown) [CBK267136] | 92.7% | –
O=c1cc(O)c2ccccc2n1Cc1ccccc1F [CBK291162] | 86.3% | –
CCOc1cc(/C=C2/SC(=S)N(c3cccc(C(F)(F)F)c3)C2=O)ccc1OCC(=O)O [CBK264965] | 106% | –
NC(=O)C1CCN(C2=NC(=O)/C(=C/c3cn(-c4ccccc4)nc3-c3cccs3)S2)CC1 [CBK265179] | 97.3% | –
CN1CCN(C(=O)Cn2c(-c3cccs3)cc3cccnc32)CC1 [CBK282558] | 97% | –
CCCC(=O)NC[C@H]1CC[C@H](c2ccnc3cc(C)nn32)CC1 [CBK283474] | 102% | –
O=C(NCc1cccc(C(F)(F)F)c1)N1CCN(c2ccc(F)cc2)CC1 [CBK156390] | 89.4% | –
CCCc1ccc(S(=O)(=O)Nc2ccc(C(=O)N(CC)CC)cc2)cc1 [CBK034403] | 92.3% | –
CC1CCCN(Cc2nc3c(c(=O)n(C)c(=O)n3C)n2CC(N)=O)C1 (stereo not shown) [CBK306064] | 82.3% | –
O=C1CN(C(=O)Nc2ccc3[nH]ccc3c2)CCN1 [CBK155858] | 87% | –
C[C@]1(CO)C2CC[C@H]3OC(=O)C[C@H]3[C@]2(C)CC[C@H]1OC(=O)Nc1ccccc1 (stereo partly shown) [CBK289577] | 84.5% | –
CCOC(=O)C1CCCN(Cc2cc(F)cc(C(C)=O)c2O)C1 (stereo not shown) [CBK304020] | 87.1% | –
CCN(CC(=O)NC(C)C)Cc1nc(-c2cccc(C(F)(F)F)c2)no1 [CBK306039] | 88.6% | –

SMILES | viability at 28.5 h, 10 µM (% viability) | viability at 28.5 h, 10 µM
COc1ccc(NC(=O)CSc2nc(C)c(Cc3ccc(O)cc3)[nH]2)cc1 [CBK291171] | 95.4% | –
CCCCC(CC)CN1CNC(=S)NC1 (stereo not shown) [CBK265404] | 105% | –
O=C(N[C@H]1C[C@H]2C(=O)Nc3ccccc3C(=O)N2C1)c1ccccc1 [CBK289354] | 103% | –
Cc1ccc2cc(COC(=O)c3ccc(N4CCOCC4)nc3)c(Cl)nc2c1 [CBK295336] | 90.5% | –
CCOc1oc2cc(O)ccc2c1C(=O)CSC1CCCCC1 [CBK022262] | 87.1% | –
C[C@]12CN(Cc3ccccc3)C[C@H]1NC(=O)c1ccccc1C2O (stereo partly shown) [CBK282302] | 112% | –
O=C(CCCSC1=NC(C(F)(F)F)CC(c2ccco2)N1)Nc1ccc(Cl)c(Cl)c1 (stereo not shown) [CBK268858] | 88% | –
O=C(CC1CC1)N1CCC2(CCN(Cc3ccccc3)C2)C1 (stereo not shown) [CBK136825] | 93.9% | –
CCN1CCN(C(=O)CN(CCc2ccccc2)S(C)(=O)=O)CC1 [CBK266666] | 91.8% | –
COCC(=O)N1CCC(Cc2ccc(-c3cccc(C)c3)cc2)(C(=O)NC(C)C)CC1 [CBK285759] | 93.6% | –
Cc1ccc([N+](=O)[O-])c(OCCNCCN(C)C)c1 [CBK267822C] | 89% | –
Cc1nn(CCC#N)c(C)c1[C@@H]1C=C[C@@H](NC(=O)NC(C)C)C1 [CBK289172] | 89.2% | –
COc1cc(C(=O)Nc2ccccc2C(=O)N2CCN(C)CC2)cc(OC)c1OC [CBK269803] | 88.5% | –
CCc1nn(CC(=O)N(CC)CC)c(=O)c2cc3ccsc3n12 [CBK284132] | 88.2% | –
COc1ccc([N+](=O)[O-])cc1-c1ccc(/C=N/NC(=O)Cn2nnnc2N)o1 [CBK262505] | 92.2% | –
COc1ccc(S(=O)(=O)NC(C)C(=O)NCc2ccncc2)cc1C (stereo not shown) [CBK269347] | 101% | –
CC(c1ccncc1)N1Cc2cccc(C(=O)O)c2C1=O (stereo not shown) [CBK291137] | 97.4% | –
CC1(Cc2ccn[nH]2)SCCCS1 [CBK019308C] | 109% | –
CN(C)S(=O)(=O)N(CC(=O)NCc1ccncc1)c1ccccc1 [CBK268322] | 111% | –
Cc1ccc2nc(COC(=O)c3ccc(Cn4nnc5ccccc54)cc3)cn2c1 [CBK297923] | 96.6% | –
CCN(CC(=O)NC(C)(C)C)S(=O)(=O)c1cccc(C#N)c1 [CBK306087] | 114% | –
CNC(=O)Oc1cccc2cccnc12 [CBK015609] | – | 88.5%

SMILES | viability at 28.5 h, 10 µM (% viability) | viability at 28.5 h, 10 µM
COc1c(C(N)=O)c(O)c(OC)c2occc12 [CBK016255] | 80.5% | –
O=c1[nH]c(=O)c2cc(S(=O)(=O)NCc3ccccc3CN3CCCC3)ccc2[nH]1 [CBK286395] | 108% | –
O=C(Cc1ccc(Cl)cc1)Nc1cccc(C(=O)Nc2ccccc2C(=O)O)c1 [CBK264750] | 107% | –
c1coc(-c2cc(Nc3ccc4[nH]ccc4c3)ncn2)c1 [CBK090862] | 95.5% | –
CCN(CC)C(=O)N1CCN(CCCC(=O)c2ccc(F)cc2)CC1 [CBK025042C] | 85.4% | –
O=S(=O)(Nc1ccccn1)N1CCOCC1 [CBK269391] | 86.9% | –
COc1cc(/C=N/NC(=O)CC#N)ccc1OCc1ccccc1Cl [CBK263932] | 84.9% | –
O=C(c1nccs1)C1CCN(C(=O)Cc2ccccc2Cl)CC1 [CBK284162] | 87.4% | –
Cc1ccc2c(c1)OC1(CCN(C(=O)c3cc4c(C)nn(C)c4s3)CC1)CC2=O [CBK166037] | 79.5% | –
Cc1ccc(S(=O)(=O)c2ccc(C)c(S(N)(=O)=O)c2)cc1S(N)(=O)=O [CBK261664] | 83.6% | –
O=S1(=O)CC(OS(=O)(=O)c2ccc(Cl)cc2)C(OS(=O)(=O)c2ccc(Cl)cc2)C1 (stereo not shown) [CBK262049] | 104% | –
CN(C)c1ccccc1-c1cc(Nc2ccc3cn[nH]c3c2)ncn1 [CBK090850] | 55.7% | –
O=c1ccc2ccc(-c3cccc(C(F)(F)F)c3)nc2[nH]1 [CBK073717] | 83.7% | –
C[C@@H]1CN(C(=O)OCCc2ccsc2)C[C@H](C)O1 [CBK200417] | 89.3% | –
O=c1n(C(c2ccccc2)c2ccccc2)ccn1S(=O)(=O)c1ccc(Oc2ccccc2)cc1 [CBK106624] | 89.5% | –
Cc1cc2nc(-c3cc(NC(=O)/C=C/c4cccc([N+](=O)[O-])c4)ccc3O)oc2cc1C [CBK263438] | 94.1% | –
O=C(NCCOc1ccccc1Cl)NC(=O)C1CCN(CCOc2ccc(Br)cc2)CC1 [CBK034897] | 84.6% | –
COc1ccc2c(c1)C(NC(=O)C1CCCN(C)C1)CC(C)(C)O2 (stereo not shown) [CBK307631] | 113% | –
COc1ccc(C(=O)Nc2noc3nc(C)ccc23)cc1OC [CBK287832] | 89.7% | –
COc1ccc(-c2nc3cc(NC(=O)C(c4ccccc4)c4ccccc4)ccc3o2)cc1 [CBK264980] | 113% | –
COc1cccc(-c2noc(Cn3cnc4sccc4c3=O)n2)c1 [CBK297127] | 85.3% | –
CC1CCc2c(C(=O)N3CCC4(C3)NC(=O)NC4=O)csc2C1 (stereo not shown) [CBK304290] | 76.8% | –

SMILES | viability at 28.5 h, 10 µM (% viability) | viability at 28.5 h, 10 µM
C#CCNC(=O)C1CCN(c2nc3ccccc3n2CC)CC1 [CBK283923] | 89.4% | –
FC(F)(F)c1ccnc(OCc2ccc(-c3ccccc3)cc2)c1 [CBK115826] | 108% | –
C=C(C)Cn1c(=O)c2c(nc3[nH]c(C)c(C)n32)n(C)c1=O [CBK288184] | 102% | –
Cc1ccc(C2=CCN(CC(=O)N3CCc4ccccc43)CC2)o1 [CBK283918] | 88.1% | –
O=C(O)c1ccc2[nH]c3c(c2c1)CCCC3 [CBK001252] | 90.9% | –
CCCc1cc(-c2c(Cl)cccc2Cl)[nH]n1 [CBK107818] | 91.2% | –
CCN(CC)C(=O)N1CCN(CCC#N)CC1 [CBK027538] | 94.9% | –
Cc1ccc2nsnc2c1NC(=O)CN1CCN(c2ccc(F)cc2)CC1 [CBK269231] | 98.9% | –
COc1cccc(CN2CCC3(CC2)NC(=O)Cc2ccc(C)cc23)c1 [CBK040219] | 88.5% | –
O=C(Nc1cccnc1)c1cc(C(=O)c2ccc(Cl)cc2Cl)c[nH]1 [CBK107406] | 93.7% | –
Cc1cc2c(o1)c1cnn(CC(=O)N3CCCC3)c(=O)c1n2C(C)C [CBK284232] | 89% | –
CN(C)CCN(C)c1nc(-c2ccccc2F)cn2ccnc12 [CBK037406] | 99.8% | –
CCc1cc(NC[C@@H](O)CO)nc(-c2ccc(F)c(Cl)c2)n1 [CBK132880] | 74.4% | –
CN1CCC(Cc2nc(CC3CCCOC3)n(CC(F)(F)F)n2)CC1 (stereo not shown) [CBK306801] | 83.2% | –
COc1ccc(CC(=O)NCC(=O)N2CCC3(CC2)NCCc2nc[nH]c23)cc1 [CBK287997] | 110% | –
CC(=O)Nc1ccc(S(=O)(=O)N2CCC3(CC2)NC(=O)c2cc(-c4ccoc4)ccc2O3)cc1 [CBK115856] | 113% | –
O=C(Nc1cccc(Br)c1)C1CN(S(=O)(=O)c2ccccc2)CCN1S(=O)(=O)c1ccccc1 (stereo not shown) [CBK262671] | 79.7% | –
CC1CCN(Cc2ccc(-c3nnn(CC(=O)NCc4ccc(S(C)(=O)=O)cc4)n3)cc2)CC1 [CBK144152C] | 94.3% | –
c1coc(-c2nc3n(n2)CCS3)c1 [CBK007565] | 84.7% | –
CC(=O)Nc1ccc(C(=O)N(Cc2ccccn2)CC2CCCO2)cn1 (stereo not shown) [CBK306784] | 83.7% | –
c1ccc(SCc2csc(-c3ccc4c(c3)OCO4)n2)nc1 [CBK270294] | 87.7% | –
COC(=O)c1cscc1NC(=O)c1cnc(-c2cccc(C)c2)c(-c2ccc(C(C)=O)s2)c1 [CBK036760] | 85.4% | –
